This is an account of results in patent US20220274997A1, “PIM KINASE INHIBITOR COMPOSITIONS AND USES THEREOF” (Snap Bio, Inc., priority 2019, published 2022).

One experiment deals with T1, PIM3 (Homo sapiens, UniProt Q86V86).
T1 construct: purchased SignalChem, Richmond, Canada P37-10BG
Description: LANCE Ultra kinase assay, PIM3. The experiment is classed as biochemical. Conditions: LANCE assay. The source says:
The second assay used was Perkin Elmer's LANCE® Ultra kinase assay which uses a ULight™-labeled peptide substrate and an appropriate Europium-labeled anti-phospho antibody. When the substrate becomes phosphorylated by a kinase of interest, the phosphorylated site on the substrate is recognized by the Europium-labeled anti-phospho antibody. […] The intensity of light emission is proportional to the level of ULight peptide phosphorylation. A kinase inhibitor reduces the FRET signal, thus providing an accurate and sensitive measure of inhibition potency.
The assay was performed in 384-well plates in two steps: PIM kinases were mixed with the ULight-substrate (CREBtide) in buffer and incubated for 10 min. Subsequently, ATP and molecules of the present disclosure were added in a kinase buffer at the appropriate concentration and the reactions were incubated for 1 hour, at room temperature in the dark. • After 1 h EDTA was added to stop the kinase reaction, Eu-W1024-labeled anti-phosphoserine-CREB (Ser133) Antibody (anti-phosphoCREBtide specific antibody) was added to the reaction in LANCE Detection buffer. The mixture was allowed to incubate for 30 min to allow binding of the antibody to the phosphorylated site before the plate was read using a Tecan microplate reader
Kinase Assay Buffer—50 mM HEPES pH7.0.1 mM EGTA, 10 mM MgCl2, 0.01% BRU-35.
The inhibitory activity of each compound against PIM kinases was measured with the LANCE® Ultra Kinase Assays by ChemDiv, Inc. (San Diego, Calif.).
In general terms: In TR-FRET formats the signal depends on donor and acceptor labels being close together.

The subject of the next experiment is DU-145. Description: CellTiter-Glo cancer cell growth inhibition, DU-145. The experiment is classed as cell-based. Conditions: Homo sapiens, DU-145, 72 h. The source says: The CellTiter-Glo® Luminescent Cell Viability Assay is a sensitive homogeneous method to determine the number of viable cells in culture, Detection is based on using the luciferase reaction to measure the amount of ATP from viable cells. The amount of ATP in cells correlates with cell viability. Within minutes after a loss of membrane integrity, cells lose the ability to synthesize ATP, and endogenous ATPases destroy any remaining ATP; thus the levels of ATP fall precipitously. The CellTiter-Glo® Reagent does three things upon addition to cells. It lyses cell membranes to release ATP; it inhibits endogenous ATPases, and it provides luciferin, luciferase and other reagents necessary to measure ATP using a bioluminescent reaction. The unique properties of a proprietary stable luciferase. There is a linear relationship (r2=0.99) between the luminescent signal and the number of cells from 0 to 50.000 cells per well.
All assays were performed by Reaction Biology Corporation (Malvern, Pa.) or ChemDiv, Inc. (San Diego, Calif.). […]
Conditions: 37° C., air 95%; HEPA-filtered carbon dioxide (CO2) 5%, humidified atmosphere. • Cells were grown in 175 cm^2 flasks to 80-90% of confluency. • Culture media was aspirated and cell layer was briefly rinsed with Versen solution to remove all traces of serum. • 2 mL of accutase was added to cells. • Flasks were retuned to incubator for 5 min to allow cell detachment. • Add 6.0 mL of complete growth medium. • Single cell suspension was created by gently pipetting. • Cells were counted using a Hematocytometer and a suspension with the desired cell concentration was prepared. […]
Stock solutions ([…]) were diluted with cell culture media to produce 500× serial dilutions and […] of final compound dilutions were added to cells in assay plates to screen a series of 10 doses starting at 100 mM. […] Luminescence intensity was measured for each well using the Tecan M 1000 microplate reader after 5 min of incubation with CellTiter-Glo Reagent. The number of viable cells in culture was determined based on quantitation of the ATP present in each culture well. […]

Molecules are shown by their SMILES.

By IC50 is commonly meant the midpoint of a concentration-inhibition curve. As usually defined, the EC50 is the midpoint of the concentration-response curve. A higher EC50 goes with a less potent agent. Regarding `O=C1NC(=O)c2c1c1c3cc(F)c(O)cc3[nH]c1c1c2c2ccccc2n1CCN1CCOCC1` [Compound 18, 3-fluoro-2-hydroxy-12-(2-morpholin-4-ylethyl)-12,13-dihydro-5H-indolo[2,3-a]pyrrolo[3,4-c]carbazole-5,7(6H)-dione], at PIM3 (ATP 1 mM), inhibition was half-maximal at 9.5 nM (IC50). In the experiment with DU-145, this compound registered an EC50 of 41 nM.

On to `O=C1NC(=O)c2c1c1c3ccccc3[nH]c1c1c2c2cc(F)c(O)cc2n1CCN1CCOCC1` [Compound 19, 3-fluoro-2-hydroxy-13-(2-morpholin-4-ylethyl)-12,13-dihydro-5H-indolo[2,3-a]pyrrolo[3,4-c]carbazole-5,7(6H)-dione], for which the 50% inhibitory concentration (IC50) against PIM3 (ATP 0.1 mM) was 1 nM; against PIM3 (ATP 1 mM), 4.3 nM. This compound yielded an EC50 in the experiment on DU-145 of 40 nM.
